Source: US9610294B2, “Methods and compositions for the treatment of fluid accumulation in and/or under the retina” (UNIVERSITE PARIS DESCARTES, priority 2010, dated 2017)

Test system: Kir4.1
Test: Kir4.1 expression (real-time PCR, western blot) in rat RMG primary cultures and retinal explants
Type: cell-based
Experimental: Rat RMG cells were obtained as described (deKozak, Y., Naud, M. C., Bellot, J., Faure, J. P., and Hicks, D. (1994) Differential tumor necrosis factor expression by resident retinal cells from experimental uveitis-susceptible and -resistant rat strains. J Neuroimmunol 55, 1-9). Briefly, rats at postnatal (PN) day 17 (when RMG cells are mature) were sacrificed and eyes enucleated. Intact eyeballs were maintained in DMEM overnight at room temperature in the dark, and then incubated 45 min with 2 mg/ml trypsin/collagenase I at 37° C. The neural retinas were separated from the lens and vitreous, cut into small fragments and plated in Petri dishes containing DMEM supplemented with 10% FCS, 100 units/ml penicillin, 100 µg/ml streptomycin, and 0.2% amphotericin B. Cultures were maintained at 37° C. in a humidified atmosphere containing 5% CO2. After 5 to 6 days, the cultures were washed extensively with medium so that only a strongly adherent flat cell population remained.
Müller cells were seeded in 6-well tissue culture plates (Becton Dickinson, Le Pont de Claix, France). Rat PN17 RMG cells were maintained in their initial Petri dishes. Sub confluent (80%) cells were incubated in media supplemented with 10% steroid-free (charcoal treated) FCS for 24 hrs. Corticosteroid (Sigma-Aldrich, Saint Quentin Fallavier, France) treatments were then applied respectively for a further 24 hrs: 10 nM aldosterone, 10 nM aldosterone plus 1).IM RU38486 (GR-specific antagonist), 10 nM aldosterone plus 1 µM RU26752 (MR-specific antagonist) or 1 µM dexamethasone. The steroids were previously dissolved in 2% steroid-free FCS media containing 0.1% ethanol. Control cells were treated with 0.1% ethanol in media.
After enucleation, rat retinas were isolated immediately under aseptic conditions and cut into 4 pieces. They were then transferred onto a Cyclopore 0.2).Im polycarbonate membrane (Whatman, Maidstone, England), and flatmounted with the vitreal side up. The support membranes were placed in 6-well tissue culture plates containing 2 ml DMEM supplemented with 10% steroid-free FCS, 1% penicillin-streptomycin and 0.1% amphotericin B. Explants were treated with corticosteroids as described for cultured cells. Similarly, the dose-dependent effect of aldosterone (0.1-100 nM) was analyzed on retinal explants in separate experiments.
Total RNA was isolated from the treated RMG cells and retinal explants using RNeasy Mini Kit (Qiagen, Courtaboeuf, France). First-strand cDNA was synthesized after DNase I (Qiagen) treatment using random primers (Invitrogen) and superscript II reverse transcriptase (Invitrogen). Transcript levels of ENaC-a, Kir4.1 and AQP4 were analyzed by real-time PCR performed in 7500 Real-Time PCR System (Applied Biosystems, Foster City, Calif., USA) with either TaqMan® (Applied Biosystems) or SYBR® Green (Invitrogen, Cergy Pontoise, France) detection. The 18S was used as internal control.
Retinal explants were homogenized in Np40 buffer in the presence of protease inhibitors. The protein concentration was determined by the Bradford method. Equal amounts of protein (12 .ug) were separated on Novex® 4%-12% Tris-Glycine gel (Invitrogen), transferred to nitrocellulose, and the blots were incubated with primary antibodies at 4° C. overnight. The membranes were washed, incubated with horse radish peroxidase conjugated goat anti-rabbit IgG (1:3000, Vector, AbCys, Paris, France) for 1 hr at room temperature, and developed using ECL Plus western blotting detection reagents (GE healthcare, Orsay, France). The j3-actin was used as internal control. The following primary antibodies were used: rabbit anti-alpha ENaC (1:500, Abcam, Cambridge, Mass., USA), rabbit anti-Kir4.1 (1:400, Alomone Labs, Jerusalem, Israel), rabbit anti-AQP4 (1:750, Millipore, St Quentin en Yvelines, France) and rabbit anti-j3-actin (1:1000, Abcam)

Structure (SMILES): C[C@]12CCC(=O)C=C1CC[C@@H]1[C@@H]2[C@@H](O)C[C@]2(C=O)[C@@H](C(=O)CO)CC[C@@H]12 [aldosterone]
- Kir4.1 expression (transcripts) (24 hrs treatment, rat RMG primary cultures and retinal explants): up-regulate
- expression of potassium channel Kir4.1 (aldosterone 24 hrs): 1.9 fold
- aldosterone concentration at which increase in Kir4.1 transcripts is fully saturated (dose-dependent effect, retinal explants): 10 nM
- Kir4.1 expression at the protein level (western blot): up-regulated
